The values below come from patent US8263598B2, “Substituted sulfonamide compounds” (Gruenenthal GmbH, priority 2008, dated 2012).

Test [1] has as its target T1, human B1R receptor (hB1R) (Homo sapiens, UniProt P46663).
T1 construct: host or cells: CHO K1 cells
T1 sequence (P46663 1-353): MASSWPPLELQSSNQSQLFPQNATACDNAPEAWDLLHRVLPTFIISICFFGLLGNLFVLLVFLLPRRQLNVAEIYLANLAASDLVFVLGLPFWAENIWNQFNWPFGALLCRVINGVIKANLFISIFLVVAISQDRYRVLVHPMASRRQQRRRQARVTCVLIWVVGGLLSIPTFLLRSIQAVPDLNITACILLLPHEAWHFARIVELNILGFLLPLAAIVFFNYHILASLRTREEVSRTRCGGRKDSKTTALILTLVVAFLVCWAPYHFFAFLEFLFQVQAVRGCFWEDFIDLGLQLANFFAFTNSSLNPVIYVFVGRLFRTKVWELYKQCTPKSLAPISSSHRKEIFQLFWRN
Briefly: FLIPR Ca2+ assay on human bradykinin 1 receptor (CHO K1 hB1R cells). It counts as cell-based. The note with it: test substance 10 μM; CHO K1 cells with human B1R gene; agonist Lys-Des-Arg9-bradykinin 0.5 nM; compared to maximum achievable inhibition. An outline of the steps:
(§1)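 Values are percent inhibition of agonist-evoked Ca²⁺ influx, measured by Fluo-4 fluorescence peak in FLIPR relative to maximum achievable inhibition. Compound at 10 μM was preincubated 10 min on B1R-transfected CHO K1 cells before challenge with 0.5 nM Lys-Des-Arg9-bradykinin (human) or 100 nM Des-Arg9-bradykinin (rat).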

Test [2] has as its target T2, B1R receptor of rats (rB1R) (Rattus norvegicus, UniProt P97583).
T2 construct: host or cells: CHO K1 cells
T2 sequence (P97583 1-337): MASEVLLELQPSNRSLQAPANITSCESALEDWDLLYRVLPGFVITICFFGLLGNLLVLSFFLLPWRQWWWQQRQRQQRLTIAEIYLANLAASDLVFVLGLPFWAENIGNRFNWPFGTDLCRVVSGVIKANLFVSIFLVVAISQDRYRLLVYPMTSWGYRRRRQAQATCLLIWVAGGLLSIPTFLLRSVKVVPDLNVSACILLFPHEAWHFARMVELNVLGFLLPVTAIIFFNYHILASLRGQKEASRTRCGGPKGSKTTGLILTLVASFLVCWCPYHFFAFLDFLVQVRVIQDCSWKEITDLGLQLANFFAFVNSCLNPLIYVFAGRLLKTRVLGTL
The experiment in a line: FLIPR Ca2+ assay on rat bradykinin 1 receptor (CHO K1 rB1R cells). The format is cell-based. The note with it: test substance 10 μM; CHO K1 cells with B1R gene of rats; agonist Des-Arg9-bradykinin 100 nM; compared to maximum achievable inhibition. An outline of the steps: as §1

As to “N-benzyl-N-(2-(2-(6-((dimethylamino)methyl)-1-ethyl-3,4-dihydropyrrolo[1,2-a]pyrazin-2(1H)-yl)-2-oxoethyl)ethyl)-4-methoxy-2,3,6-trimethylbenzenesulfonamide [Example 122]”, the “hB1R [10 μM] % Inhibition” value in test [1] is reported as 101%. In test [2], the “rB1R [10 μM] % Inhibition” value was 101%.
